This assay has as its system lubricin. In kind it is cell-based. Particulars: lubricin expression; primary human synovial fibroblasts; cells lysed after 48-72 hours; each supplement in 6 wells. On the procedure:
To identify substances having the ability to lubricate synovial joints, we first screened a library of substances for the ability to induce expression and secretion of endogenous lubricin in cultured synovial fibroblasts. A library of nutritional supplements containing 175 natural compounds was made using a natural compound collection. Each supplement was dissolved in water to an approximate concentration of 10 mM. 96-well daughter plates were made and plates were stored at −20° C.
Human synovial fibroblasts were plated the evening of the first day of the assay and grown overnight. In the morning of day 2, a supplement solution was added to each well of the 96-well plate. Each supplement was tested in 6 different wells to provide enough separate measurements to allow a statistical analysis of the results of the assay. After 48-72 hours, cells were lysed using a non-ionic detergent and supernatants containing cellular extracts were collected. Each supernatant was assayed for lubricin expression using any of the two methods described below.
We have developed two methods to measure the expression of lubricin, both of which are based on a sandwich assay. In the first sandwich assay, concanavilin A (a lectin) is used to capture lubricin while peanut agglutinin (a lectin) is used to detect proteins secreted by synovial fibroblasts. In contrast, the second assay relies on a rabbit polyclonal antibody for both the capture and detection of lubricin secreted by fibroblasts. In both assays, purified lubricin was used as a calibrator.
A substance that raised the level of measured lubricin in a significant manner when analyzed by t-test was considered a potentially efficacious substance useful for the present invention. All significant results were repeated in two additional experiments. […] In this regard, the 16 compounds that increased lubricin in the lectin-based assay were the same 16 compounds that increased lubricin levels in the antibody-based assay. […] Compounds that increase lubricin expression in synovial fibroblasts are indicated in Table 1 and the level of increase in lubricin expression is shown in Table 2 and FIG. 2.
Substances from the nutritional supplement library were screened for their ability to stimulate lubricin expression in primary human synovial fibroblasts. Cells were cultured in the presence or absence of each substance and lubricin expression was measured using the two detection assays discussed below.
In both assays, the cellular content of synovial cells was extracted as follows. Following the removal of culture media, cells were washed twice with D-PBS. Cells were first incubated in 500 μL of 1% Triton in D-PBS for five minutes and then mechanically disrupted using a pipette to ensure that all cells detach from the plates. The Triton solution containing the cells was transferred to an eppendorf and stored on ice. Samples were sonicated for three seconds and centrifuged for five minutes. The supernatant containing the cellular extracts was transferred to a fresh tube and tested for lubricin expression.

This is an account of results in patent US20060240037A1, “Methods and compositions for the treatment and prevention of degenerative joint disorders” (priority 2003, published 2006).

Where a name gives a salt, the structure may show the parent alone.

As to `CC(C)(CO)[C@@H](O)C(=O)NCCC(=O)O` [Compound G-35, Pantothenic Acid], the “Percent stimulation relative to untreated control Adjusted for background” value was 154%.

As for `CCCCCCCCCCCCCCCCCCCCCCCCCCCCO` [Compound G-5, Octacosanol], the “Percent stimulation relative to untreated control Adjusted for background” value came to 307%.

With `C[C@]12CCC(=O)C=C1CC[C@@H]1[C@@H]2CC[C@]2(C)C(=O)CC[C@@H]12` [Compound G-57, Androstenedione], the “Percent stimulation relative to untreated control Adjusted for background” value was determined as 219%.

For Bromelain [Compound G126], the “Percent stimulation relative to untreated control Adjusted for background” value is given as 75%.

Consider `CSCC[C@H](N)C(=O)O` [Compound G66, L-Methionine], for which the “Percent stimulation relative to untreated control Adjusted for background” value is given as 234%. Next, `O=c1c(O)c(-c2ccc(O)c(O)c2)oc2cc(O)cc(O)c12` [Compound G-15, Quercetin]: 118%; `N[C@@H](CS)C(=O)O` [Compound G-22, L-Cysteine]: 363%. Consider `Cc1ncc(C[n+]2csc(CCO)c2C)c(N)n1` [Compound G-27, Thiamin HCl], for which the “Percent stimulation relative to untreated control Adjusted for background” value stood at 267%.
